Assay [1] deals with cellular H3K36me2 level in thyroid carcinoma cell line CGTH-W-1 (NSD2 E1099K). Description: H3K36me2 cellular ELISA assay in CGTH-W-1 line. Conditions: Homo sapiens, CGTH-W-1, 72 h, read-out: H3K36me2 ELISA in CGTH-W-1. In kind it is cell-based. The gist of the method:
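After 72 h compound treatment of NSD2 E1099K-mutant CGTH-W-1 cells, H3K36me2 and total H3 were quantified by ELISA with chemiluminescent read-out. A parallel-seeded plate gave cell viability by CellTiter-Glo.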
For orientation: In an ELISA, binding on a coated surface is turned into a signal by an enzyme label.

In a further assay the target is NSD2 [1-1365] (Homo sapiens (Human), UniProt O96028). Description: LC-MS/MS-based NSD2 enzymatic assay (SAH production). The class given is biochemical. The settings on record: NSD2 biochemical activity, class symbols; read-out: NSD2 IC50. The essentials:
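SAH formed was measured by LC-MS/MS using d4-SAH as internal standard and an SAH calibration curve. Compounds were preincubated 20 min with NSD2 [1-1365] and SAM; mouse-liver nucleosome then started a 90 min room-temperature reaction (8 nM enzyme, 1 μM SAM, 400 nM nucleosome final, pH 8.0), stopped with TFA.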

The subject of assay [2] is cellular H3K36me2 level in multiple myeloma cell line KMS11 (t(4;14)+). The assay can be described thus: H3K36me2 cellular ELISA assay in KMS11-Par line. In kind it is cell-based. Conditions: Homo sapiens, KMS-11; KMS11-Par line (t(4;14)+), 72 hours treatment, ELISA; read-out: H3K36me2 ELISA in KMS11-Par. The gist of the method: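 After 72 h compound exposure, HCl-extracted histones from KMS11 (t(4;14)+) cells were probed by ELISA for H3K36me2 against total H3 with a chemiluminescence read-out. Cells were plated at 1,250/well in Opti-MEM plus B-27 and N2 the day before. A parallel CellTiter-Glo plate tracked viability.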

Chain of NSD2 [1-1365] (O96028 whole entry): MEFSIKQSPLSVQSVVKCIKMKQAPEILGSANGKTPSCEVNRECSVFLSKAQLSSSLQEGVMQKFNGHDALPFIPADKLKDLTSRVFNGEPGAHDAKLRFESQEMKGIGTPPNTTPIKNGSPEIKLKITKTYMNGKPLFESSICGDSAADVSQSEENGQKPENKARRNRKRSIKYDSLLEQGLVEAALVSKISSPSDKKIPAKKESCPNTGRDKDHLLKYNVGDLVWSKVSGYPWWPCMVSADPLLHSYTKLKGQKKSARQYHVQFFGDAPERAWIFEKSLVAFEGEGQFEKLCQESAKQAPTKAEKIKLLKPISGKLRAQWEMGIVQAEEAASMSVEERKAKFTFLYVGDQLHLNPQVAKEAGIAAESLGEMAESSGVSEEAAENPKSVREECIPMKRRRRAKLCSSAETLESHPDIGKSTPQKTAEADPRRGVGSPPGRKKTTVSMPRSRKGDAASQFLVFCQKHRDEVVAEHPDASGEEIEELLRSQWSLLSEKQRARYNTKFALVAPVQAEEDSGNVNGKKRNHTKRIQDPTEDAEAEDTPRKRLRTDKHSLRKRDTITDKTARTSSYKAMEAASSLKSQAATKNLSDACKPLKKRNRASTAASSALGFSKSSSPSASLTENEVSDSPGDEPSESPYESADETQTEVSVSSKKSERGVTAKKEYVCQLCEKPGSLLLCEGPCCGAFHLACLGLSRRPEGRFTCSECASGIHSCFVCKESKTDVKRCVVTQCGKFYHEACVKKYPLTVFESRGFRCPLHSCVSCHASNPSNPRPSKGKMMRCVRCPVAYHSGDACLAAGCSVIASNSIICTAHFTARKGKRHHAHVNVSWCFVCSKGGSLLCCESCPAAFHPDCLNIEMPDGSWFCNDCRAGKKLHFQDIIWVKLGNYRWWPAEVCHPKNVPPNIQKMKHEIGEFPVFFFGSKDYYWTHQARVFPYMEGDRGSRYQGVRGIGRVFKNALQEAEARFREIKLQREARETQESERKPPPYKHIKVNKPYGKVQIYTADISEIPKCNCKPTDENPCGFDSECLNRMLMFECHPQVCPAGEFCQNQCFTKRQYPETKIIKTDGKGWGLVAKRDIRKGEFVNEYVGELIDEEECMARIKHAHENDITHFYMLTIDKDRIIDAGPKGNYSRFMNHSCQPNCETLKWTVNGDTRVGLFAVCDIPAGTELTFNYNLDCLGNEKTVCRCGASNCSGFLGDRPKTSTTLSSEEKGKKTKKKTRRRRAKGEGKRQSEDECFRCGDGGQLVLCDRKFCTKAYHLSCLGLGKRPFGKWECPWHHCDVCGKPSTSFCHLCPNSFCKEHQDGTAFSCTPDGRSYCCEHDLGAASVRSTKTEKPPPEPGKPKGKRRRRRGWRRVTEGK

Turning to `Nc1ncnc2c1ncn2Cc1cc(-c2ccc(F)c(F)c2)ncc1N1CCC[C@](N)([C@H](O)C(F)F)C1` [Example 114, (S)-1-((R)-3-amino-1-(4-((6-amino-9H-purin-9-yl)methyl)-6-(3,4-difluorophenyl)pyridin-3-yl)piperidin-3-yl)-2,2-difluoroethan-1-ol], the IC50 is 443 nM in assay [1], 10 to 1000 nM at NSD2 [1-1365] and 1940 nM in assay [2].

Turning to `Cc1cc(C(F)F)ccc1-c1cc(Cn2cnc3c(N)ncnc32)c(N2CCC[C@](N)([C@@H](O)C(F)F)C2)cn1` [Example 115, (R)-1-((R)-3-amino-1-(4-((6-amino-9H-purin-9-yl)methyl)-6-(4-(difluoromethyl)-2-methylphenyl)pyridin-3-yl)piperidin-3-yl)-2,2-difluoroethan-1-ol], the figures for the IC50 (in assay [1]; at NSD2 [1-1365]; in assay [2]) were 88 nM, 1 to 10 nM and 927 nM, respectively.

With `Nc1ncnc2c1ncn2Cc1cc(-c2ccc(OC(F)F)c(F)c2)ncc1N1CCC[C@](N)([C@H](O)C(F)F)C1` [Example 116, (S)-1-((R)-3-amino-1-(4-((6-amino-9H-purin-9-yl)methyl)-6-(4-(difluoromethoxy)-3-fluorophenyl)pyridin-3-yl)piperidin-3-yl)-2,2-difluoroethan-1-ol], the IC50 in assay [1] was 168 nM; at NSD2 [1-1365] it was 1 to 10 nM; in assay [2] it was 1350 nM.

Take `Cc1cc(F)c(F)cc1-c1cc(Cn2cnc3c(N)ncnc32)c(N2CCC[C@](N)([C@@H](O)C(F)F)C2)cn1` [Example 117, (R)-1-((R)-3-amino-1-(4-((6-amino-9H-purin-9-yl)methyl)-6-(4,5-difluoro-2-methylphenyl)pyridin-3-yl)piperidin-3-yl)-2,2-difluoroethan-1-ol]: the IC50 in assay [1] was 67 nM; at NSD2 [1-1365] it was 1 to 10 nM; in assay [2] it was 1320 nM.

For the compound `Nc1ncnc2c1ncn2Cc1cc(-c2ccc(OC(F)F)c(F)c2)ncc1N1CCC[C@](N)([C@@H](O)C(F)F)C1` [Example 119, (R)-1-((R)-3-amino-1-(4-((6-amino-9H-purin-9-yl)methyl)-6-(4-(difluoromethoxy)-3-fluorophenyl)pyridin-3-yl)piperidin-3-yl)-2,2-difluoroethan-1-ol], the IC50 was 228 nM in assay [1], 1 to 10 nM on NSD2 [1-1365] and 1490 nM in assay [2].

As for `COc1ccc(-c2cc(Cn3cnc4c(N)ncnc43)c(N3CCC[C@](N)([C@@H](O)C(F)F)C3)cn2)cc1Cl` [Example 121, (R)-1-((R)-3-amino-1-(4-((6-amino-9H-purin-9-yl)methyl)-6-(3-chloro-4-methoxyphenyl)pyridin-3-yl)piperidin-3-yl)-2,2-difluoroethan-1-ol], the IC50 in assay [1] was 683 nM; at NSD2 [1-1365], 1 to 10 nM; in assay [2], 2610 nM.

With `Nc1ncnc2c1ncn2Cc1cc(-c2ccc(F)c(Cl)c2)ncc1N1CCC[C@](N)([C@@H](O)C(F)F)C1` [Example 122, (R)-1-((R)-3-amino-1-(4-((6-amino-9H-purin-9-yl)methyl)-6-(3-chloro-4-fluorophenyl)pyridin-3-yl)piperidin-3-yl)-2,2-difluoroethan-1-ol], the IC50 is 496 nM in assay [1], 1 to 10 nM at NSD2 [1-1365] and 1830 nM in assay [2].

`Cn1ncc2cc(-c3cc(Cn4cnc5c(N)ncnc54)c(N4CCC[C@](N)([C@@H](O)C(F)F)C4)cn3)c(F)cc21` [Example 123, (R)-1-((R)-3-amino-1-(4-((6-amino-9H-purin-9-yl)methyl)-6-(6-fluoro-1-methyl-1H-indazol-5-yl)pyridin-3-yl)piperidin-3-yl)-2,2-difluoroethan-1-ol]: the IC50 in assay [1] was 1490 nM; at NSD2 [1-1365], 1 to 10 nM; in assay [2] it was 7850 nM.

As for `Nc1ncnc2c1ncn2Cc1cc(-c2ccc(Cl)c(F)c2)ncc1N1CCC[C@](N)([C@@H](O)C(F)F)C1` [Example 124, (R)-1-((R)-3-amino-1-(4-((6-amino-9H-purin-9-yl)methyl)-6-(4-chloro-3-fluorophenyl)pyridin-3-yl)piperidin-3-yl)-2,2-difluoroethan-1-ol], the IC50 in assay [1] is 159 nM; at NSD2 [1-1365], 1 to 10 nM; in assay [2], 848 nM.

Turning to `COc1ccc(-c2cc(Cn3cnc4c(N)ncnc43)c(N3CCC[C@](N)([C@H](O)C(F)F)C3)cn2)cc1Cl` [Example 125, (S)-1-((R)-3-amino-1-(4-((6-amino-9H-purin-9-yl)methyl)-6-(3-chloro-4-methoxyphenyl)pyridin-3-yl)piperidin-3-yl)-2,2-difluoroethan-1-ol], the IC50 in assay [1] was 775 nM; at NSD2 [1-1365], 1 to 10 nM; in assay [2], 3950 nM.

For `Cc1ccc(-c2cc(Cn3cnc4c(N)ncnc43)c(N3CCC[C@](N)([C@@H](O)C(F)F)C3)cn2)c(C)c1` [Example 126, (R)-1-((R)-3-amino-1-(4-((6-amino-9H-purin-9-yl)methyl)-6-(2,4-dimethylphenyl)pyridin-3-yl)piperidin-3-yl)-2,2-difluoroethan-1-ol], the values for the IC50 (in assay [1]; at NSD2 [1-1365]; in assay [2]) were 469 nM, 1 to 10 nM and 1110 nM, respectively.

For `COc1ccc(-c2cc(Cn3cnc4c(N)ncnc43)c(N3CCC[C@](N)([C@H](O)C(F)F)C3)cn2)cc1F` [Example 127, (S)-1-((R)-3-amino-1-(4-((6-amino-9H-purin-9-yl)methyl)-6-(3-fluoro-4-methoxyphenyl)pyridin-3-yl)piperidin-3-yl)-2,2-difluoroethan-1-ol], the IC50 in assay [1] is 262 nM; on NSD2 [1-1365], 1 to 10 nM; in assay [2] it was 901 nM.

On to `Nc1ncnc2c1ncn2Cc1cc(-c2cc(F)c(OC(F)F)cc2F)ncc1N1CCC[C@](N)([C@H](O)C(F)F)C1` [Example 128, (S)-1-((R)-3-amino-1-(4-((6-amino-9H-purin-9-yl)methyl)-6-(4-(difluoromethoxy)-2,5-difluorophenyl)pyridin-3-yl)piperidin-3-yl)-2,2-difluoroethan-1-ol], for which the IC50 in assay [1] was 60 nM; at NSD2 [1-1365], 1 to 10 nM; in assay [2], 693 nM.

For the compound `Nc1ncnc2c1ncn2Cc1cc(C2CCCCC2)ncc1N1CCC[C@](N)([C@@H](O)C(F)F)C1` [Example 130, (R)-1-((R)-3-amino-1-(4-((6-amino-9H-purin-9-yl)methyl)-6-cyclohexylpyridin-3-yl)piperidin-3-yl)-2,2-difluoroethan-1-ol], the IC50 in assay [1] was 321 nM; on NSD2 [1-1365], 1 to 10 nM; in assay [2], 3520 nM.

Regarding `COc1ccc(-c2cc(Cn3cnc4c(N)ncnc43)c(N3CCC[C@](N)([C@@H](O)C(F)F)C3)cn2)cc1F` [Example 131, (R)-1-((R)-3-amino-1-(4-((6-amino-9H-purin-9-yl)methyl)-6-(3-fluoro-4-methoxyphenyl)pyridin-3-yl)piperidin-3-yl)-2,2-difluoroethan-1-ol], the IC50 in assay [1] is 142 nM; on NSD2 [1-1365] it was 1 to 10 nM; in assay [2], 887 nM.

Take `Nc1ncnc2c1ncn2Cc1cc(-c2ccc(C(F)F)cc2F)ncc1N1CCC[C@](N)([C@@H](O)C(F)F)C1` [Example 132, (R)-1-((R)-3-amino-1-(4-((6-amino-9H-purin-9-yl)methyl)-6-(4-(difluoromethyl)-2-fluorophenyl)pyridin-3-yl)piperidin-3-yl)-2,2-difluoroethan-1-ol]: the IC50 in assay [1] was 264 nM; at NSD2 [1-1365], 1 to 10 nM; in assay [2] it was 1230 nM.

Source of the values: patent US11420970B1 (NOVARTIS AG, priority 2019, dated 2022).
